Holding throughout (assay type): cell-based
The test system of assay [1] is IL6. The experiment in a line: LPS stimulated IL6 inhibition assay in PBMC. Particulars: human PBMCs, LPS stimulation, compound overnight, IL6 by MSD after 24 hrs; for IC50: read-out: LPS stim IL6 inhibition IC50; for Dmax: read-out: LPS Stim IL6 inhibition Dmax. The method, then:
(§1) IL-1β, LPS, or R848 Stimulated IL6 Inhibition and IL-1β Stimulated IL8 Inhibition Assay
(§2) Human PBMC cells were seeded at 2.0×10^6 cells/mL, treated with compound overnight, and dosed with the EC50 concentration of each stimulant (either IL-1B. LPS, or R848) was determined for each donor. After 24 hrs, media was collected and analyzed by MSD for IL6 and/or IL8 levels.

The subject of assay [2] is IL6. Briefly: R848 stimulated IL6 inhibition assay in PBMC. Particulars: human PBMCs, R848 stimulation, compound overnight, IL6 by MSD after 24 hrs; for IC50: read-out: R848 stim IL6 inhibition IC50; for Dmax: Homo sapiens, 24 h, read-out: R848 stim IL6 inhibition Dmax. The method, then: as §1, §2
The target of assay [3] is T1, IRAK-4 (Homo sapiens, UniProt Q9NWZ3).
T1 sequence (Q9NWZ3 1-460): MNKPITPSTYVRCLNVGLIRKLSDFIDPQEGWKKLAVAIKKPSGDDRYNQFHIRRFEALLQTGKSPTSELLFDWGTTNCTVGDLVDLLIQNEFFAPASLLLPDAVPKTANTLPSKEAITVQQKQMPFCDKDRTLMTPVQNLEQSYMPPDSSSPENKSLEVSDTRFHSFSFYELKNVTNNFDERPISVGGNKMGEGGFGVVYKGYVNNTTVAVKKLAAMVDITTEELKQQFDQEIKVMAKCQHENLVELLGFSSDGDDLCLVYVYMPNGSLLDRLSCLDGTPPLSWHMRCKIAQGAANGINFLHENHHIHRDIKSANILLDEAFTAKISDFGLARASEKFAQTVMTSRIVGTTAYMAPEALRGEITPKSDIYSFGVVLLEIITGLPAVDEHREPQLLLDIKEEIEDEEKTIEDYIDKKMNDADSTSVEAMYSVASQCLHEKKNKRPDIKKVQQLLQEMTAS
Briefly: IRAK-4 ELISA, PBMC degradation. Also noted: endogenous in cells; host or cells: PBMC. The following applies: treated overnight. The procedure, abridged:
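ELISA quantification of cellular IRAK-4 after compound treatment overnight; PBMC were plated at 2×10^6/ml, OCI-Ly10 at 1×10^6/ml.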

Take `O=C1CCC(N2Cc3cc(N4CCC(CN5CCC(n6cc7cc(NC(=O)c8cnn9cccnc89)c(OCC(F)F)cc7n6)CC5)CC4)ccc3C2=O)C(=O)N1` (centres unmarked) [Example 156]: in assay [1], the “LPS Stim IL6 inhibition Dmax” value was “C (C represents a Ymax value ≥70 and <80)”; the IC50 was less than 10 nM. Also, in assay [2], the “R848 stim IL6 inhibition Dmax” value was “A (A represents a Ymax value ≥90)” and the half-inhibitory concentration (IC50) is less than 10 nM. Further, in assay [3], the DC50 was less than 1 nM, the “PBMC DC90” value is given as “A (A represents a DC90 value <10.0 nM)” and the “PBMC Dmax” value was “A (A represents a Dmax value ≥90)”.

With `O=C1CCC(N2Cc3cc(N4CCC(CN5CCC(n6cc7cc(NC(=O)c8cnn9cccnc89)c(N8CCN(CC(F)F)CC8)cc7n6)CC5)CC4)ccc3C2=O)C(=O)N1` (centres unmarked) [Example 157], in assay [1] (Homo sapiens, PBMC, 24 h), the Dmax lay in the range of 70 to 80% and the IC50 lay within 10 to 50 nM. In assay [2] (PBMC), the Dmax is no less than 90% and the concentration for half-maximal inhibition (IC50) lay in the range of 10 to 50 nM. Moreover, in assay [3], the half-maximal degradation concentration (DC50) is less than 1 nM, the Dmax is no less than 90% and the “PBMC DC90” value is recorded as “A (A represents a DC90 value <10.0 nM)”.

Regarding `O=C1CCC(N2Cc3c(ccc(N4CCC(CN5CCC(n6cc7cc(NC(=O)c8cnn9cccnc89)c(N8CCN(CC(F)F)CC8)cc7n6)CC5)CC4)c3F)C2=O)C(=O)N1` (centres unmarked) [Example 158], in assay [1] (Homo sapiens, PBMC, 24 h), the Dmax lay in the range of 80 to 90% and the half-maximal inhibitory concentration (IC50) is less than 10 nM. In assay [2] (PBMC), the Dmax is no less than 90% and the 50% inhibitory concentration (IC50) is less than 10 nM. Moreover, in assay [3], the DC50 is less than 1 nM, the Dmax is no less than 90% and the “PBMC DC90” value was “A (A represents a DC90 value <10.0 nM)”.

Turning to `O=C1CCC(N2C(=O)c3ccc(N4CCC(CN5CCC(n6cc7cc(NC(=O)c8cnn9cccnc89)c(N8CCN(CC(F)F)CC8)cc7n6)CC5)CC4)cc3C2=O)C(=O)N1` (centres unmarked) [Example 159], in assay [1] (Homo sapiens, PBMC, 24 h), the Dmax lay in the range of 70 to 80% and the half-maximal inhibitory concentration (IC50) was 10 to 50 nM. In assay [2] (PBMC), the Dmax is no less than 90% and the 50% inhibitory concentration (IC50) was 10 to 50 nM. In assay [3], the DC50 was 1 to 5 nM, the Dmax was no less than 90% and the “PBMC DC90” value is given as “A (A represents a DC90 value <10.0 nM)”.

For `O=C1CCC(N2C(=O)c3ccc(N4CC(F)(CN5CCC(n6cc7cc(NC(=O)c8cnn9cccnc89)c(N8CCOCC8)cc7n6)CC5)C4)cc3C2=O)C(=O)N1` (centres unmarked) [Example 218], in assay [1] (Homo sapiens, PBMC, 24 h), the Dmax is 70 to 80% and the half-maximal inhibitory concentration (IC50) was 10 to 50 nM. In addition, in assay [2] (PBMC), the Dmax was no less than 90% and the IC50 is less than 10 nM. In addition, in assay [3], the DC50 fell in the range of 5 to 10 nM, the Dmax lay in the range of 80 to 90% and the “PBMC DC90” value is listed as “D (D represents a DC90 value ≥50 nM)”.

In the case of `CC1(CN2CCC(n3cc4cc(NC(=O)c5cnn6cccnc56)c(OCC5CC5)cc4n3)CC2)CN(c2cc3c(cc2F)C(=O)N(C2CCC(=O)NC2=O)C3=O)C1` (centres unmarked) [Example 222], in assay [1] (Homo sapiens, PBMC, 24 h), the Dmax is 70 to 80% and the IC50 was 50 to 100 nM. Also, in assay [2] (PBMC), the Dmax is no less than 90% and the half-inhibitory concentration (IC50) was 50 to 100 nM. In assay [3], the DC50 is no less than 10 nM, the Dmax was 70 to 80% and the “PBMC DC90” value was “D (D represents a DC90 value ≥50 nM)”.

In the case of `O=C1CCC(N2C(=O)c3ccc(N4CC[C@@H](N5CCC(n6cc7cc(NC(=O)c8cnn9cccnc89)c(OCC8CC8)cc7n6)CC5)C4)cc3C2=O)C(=O)N1` (some centres unmarked) [Example 224], in assay [1] (Homo sapiens, PBMC, 24 h), the Dmax lay within 80 to 90% and the IC50 fell in the range of 10 to 50 nM. Further, in assay [2] (PBMC), the Dmax is no less than 90% and the IC50 was in the range of 10 to 50 nM. Moreover, in assay [3], the half-maximal degradation concentration (DC50) is 1 to 5 nM; the Dmax was 80 to 90%; the “PBMC DC90” value is “B (B represents a DC90 value ≥10.0 nM and <25.0 nM)”.

As for `O=C1CCC(N2C(=O)c3ccc(N4CC(F)(CN5CCC(n6cc7cc(NC(=O)c8cnn9cccnc89)c(OCC(F)F)cc7n6)CC5)C4)cc3C2=O)C(=O)N1` (centres unmarked) [Example 231], in assay [1] (Homo sapiens, PBMC, 24 h), the Dmax lay in the range of 80 to 90% and the IC50 fell in the range of 10 to 50 nM. Further, in assay [2] (PBMC), the Dmax was no less than 90% and the IC50 was in the range of 10 to 50 nM. In addition, in assay [3], the DC50 lay in the range of 1 to 5 nM, the Dmax fell in the range of 80 to 90% and the “PBMC DC90” value is reported as “A (A represents a DC90 value <10.0 nM)”.

One may read the IC50 as the concentration that inhibits the measured activity by half. The DC50 is the concentration at which degradation of the target reaches its halfway point.

The record behind these values is patent publication US20230099344A1, “COMPOUNDS AND METHODS FOR THE TARGETED DEGRADATION OF IRAK-4” (Arvinas Operations, Inc., priority 2021, published 2023).
